# Measurements from patent US10617690B2 (priority 2015, dated 2020).
# Where a name gives a salt, the structure may show the parent alone.
# Legend:
# JAK1 protein kinase = JAK1 protein kinase (Homo sapiens, UniProt P23458); assay: biochemical; conditions: 38 uM ATP, 90 min
# Experimental: In Vitro Activity Test of Jak1, Jak 2 and Jak 3 Kinase
# Recombinant humanized JAK1, JAK2 and JAK3 […] were all purchased from Life technology. LANCE Ultra ULight™-JAK-1(Tyr1023) peptide and LANCE Eu-W1024 Anti-phosphotyrosine (PT66) were both purchased from PerkinElmer. Envision (PerkinElmer) was used to read a plate.
# Three dilution of a test compound was prepared, and 11 final concentrations were obtained: 10 uM to 0.17 nM. Each concentration had two repeat wells. The content of DMSO in a detection reaction was 1%.
# 2 nM JAK1 protein kinase, 50 nM LANCE Ultra ULight™-JAK-1(Tyr1023) peptide, 38 uM ATP, 50 mM HEPES (pH7.5), 10 mM MgCl2, 1 mM EGTA, 2 mM DTT, and 0.01% BRIJ-35. Detection plate was White Proxiplate 384-Plus plate (PerkinElmer), the reaction was conducted for 90 min at room temperature, and reaction system was 10 ul.
# 10 ul detection reagent was added into the reaction plate, wherein the final concentration of LANCE Eu-W1024 Anti-phosphotyrosine (PT66) was 2 nM, the final concentration of EDTA was 10 mM, incubation was conducted for 60 min at room temperature, and the plate was read by the Envision.
# The reading was converted into a suppression ratio as follow equation: (%)=([…])/(Max−Min)*100%. IC50 data was detected by 4 parametric curve fitting (Model 205 in XLFIT5, iDBS), see Table 1.
# JAK3 = biological target: T1, JAK3 (Homo sapiens, UniProt P52333); assay: In vitro activity test of JAK3 kinase (LANCE Ultra TR-FRET); assay type: biochemical;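 further: recombinant human JAK3 phosphorylating ULight-JAK-1(Tyr1023) peptide at 4 µM ATP, with 1% DMSO, detected by Eu-anti-phosphotyrosine TR-FRET on Envision and converted to percent inhibition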
# T1 construct: purchased Life technology
# T1 sequence (P52333 1-1124): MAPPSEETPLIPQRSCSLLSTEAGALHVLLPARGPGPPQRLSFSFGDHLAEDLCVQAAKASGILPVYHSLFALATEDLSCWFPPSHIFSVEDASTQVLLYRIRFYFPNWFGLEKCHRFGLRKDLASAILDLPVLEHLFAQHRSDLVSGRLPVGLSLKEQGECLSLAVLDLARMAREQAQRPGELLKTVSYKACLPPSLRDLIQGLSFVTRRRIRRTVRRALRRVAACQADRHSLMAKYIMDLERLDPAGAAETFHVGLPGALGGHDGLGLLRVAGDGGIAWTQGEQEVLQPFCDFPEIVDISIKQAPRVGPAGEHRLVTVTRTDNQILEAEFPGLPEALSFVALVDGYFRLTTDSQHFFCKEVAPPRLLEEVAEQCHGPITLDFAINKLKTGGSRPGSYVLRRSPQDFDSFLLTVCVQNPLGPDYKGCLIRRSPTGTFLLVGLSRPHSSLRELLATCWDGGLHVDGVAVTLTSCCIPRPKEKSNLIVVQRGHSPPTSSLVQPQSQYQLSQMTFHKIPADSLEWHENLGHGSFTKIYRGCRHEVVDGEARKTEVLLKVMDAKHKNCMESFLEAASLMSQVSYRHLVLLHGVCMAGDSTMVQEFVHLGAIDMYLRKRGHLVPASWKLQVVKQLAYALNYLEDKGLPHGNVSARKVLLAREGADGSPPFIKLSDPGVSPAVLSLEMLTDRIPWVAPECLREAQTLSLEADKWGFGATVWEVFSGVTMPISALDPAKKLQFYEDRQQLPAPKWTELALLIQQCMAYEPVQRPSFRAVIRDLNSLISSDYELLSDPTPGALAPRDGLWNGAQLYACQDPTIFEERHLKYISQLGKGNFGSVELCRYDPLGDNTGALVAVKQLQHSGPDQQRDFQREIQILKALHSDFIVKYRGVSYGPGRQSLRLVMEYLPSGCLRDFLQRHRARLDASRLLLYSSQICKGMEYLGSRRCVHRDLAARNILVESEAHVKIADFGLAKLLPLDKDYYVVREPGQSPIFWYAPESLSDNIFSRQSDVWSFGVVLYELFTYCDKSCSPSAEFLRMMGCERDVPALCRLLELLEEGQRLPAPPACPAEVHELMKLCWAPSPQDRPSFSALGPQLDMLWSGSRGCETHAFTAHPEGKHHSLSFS
# Experimental: (§1) Recombinant humanized JAK1, JAK2 and JAK3 protease were all purchased from Life technology. LANCE Ultra ULight™-JAK-1(Tyr1023) peptide and LANCE Eu-W1024 Anti-phosphotyrosine (PT66) were both purchased from PerkinElmer. Envision (PerkinElmer) was used to read a plate.
# 0.05 nM protein kinase, 50 nM LANCE Ultra ULight™-JAK-1(Tyr1023) peptide, 4 uM ATP, 50 mM HEPES (pH7.5), 10 mM MgCl2, 1 mM EGTA, 2 mM DTT, and 0.01% BRIJ-35.
# (§2) The reading was converted into a suppression ratio as follow equation: (%)=(Min−Ratio)/(Max−Min)*100%.
# JAK2 protein kinase = JAK2 protein kinase (Homo sapiens, UniProt O60674); assay: biochemical; conditions: 12 uM ATP, 60 min;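 further: recombinant human JAK2 with ULight-labelled JAK-1(Tyr1023) peptide substrate, phosphorylation detected by TR-FRET using Eu-labelled anti-phosphotyrosine antibody, 1% DMSO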
# JAK2 protein kinase, sequence (O60674 whole entry): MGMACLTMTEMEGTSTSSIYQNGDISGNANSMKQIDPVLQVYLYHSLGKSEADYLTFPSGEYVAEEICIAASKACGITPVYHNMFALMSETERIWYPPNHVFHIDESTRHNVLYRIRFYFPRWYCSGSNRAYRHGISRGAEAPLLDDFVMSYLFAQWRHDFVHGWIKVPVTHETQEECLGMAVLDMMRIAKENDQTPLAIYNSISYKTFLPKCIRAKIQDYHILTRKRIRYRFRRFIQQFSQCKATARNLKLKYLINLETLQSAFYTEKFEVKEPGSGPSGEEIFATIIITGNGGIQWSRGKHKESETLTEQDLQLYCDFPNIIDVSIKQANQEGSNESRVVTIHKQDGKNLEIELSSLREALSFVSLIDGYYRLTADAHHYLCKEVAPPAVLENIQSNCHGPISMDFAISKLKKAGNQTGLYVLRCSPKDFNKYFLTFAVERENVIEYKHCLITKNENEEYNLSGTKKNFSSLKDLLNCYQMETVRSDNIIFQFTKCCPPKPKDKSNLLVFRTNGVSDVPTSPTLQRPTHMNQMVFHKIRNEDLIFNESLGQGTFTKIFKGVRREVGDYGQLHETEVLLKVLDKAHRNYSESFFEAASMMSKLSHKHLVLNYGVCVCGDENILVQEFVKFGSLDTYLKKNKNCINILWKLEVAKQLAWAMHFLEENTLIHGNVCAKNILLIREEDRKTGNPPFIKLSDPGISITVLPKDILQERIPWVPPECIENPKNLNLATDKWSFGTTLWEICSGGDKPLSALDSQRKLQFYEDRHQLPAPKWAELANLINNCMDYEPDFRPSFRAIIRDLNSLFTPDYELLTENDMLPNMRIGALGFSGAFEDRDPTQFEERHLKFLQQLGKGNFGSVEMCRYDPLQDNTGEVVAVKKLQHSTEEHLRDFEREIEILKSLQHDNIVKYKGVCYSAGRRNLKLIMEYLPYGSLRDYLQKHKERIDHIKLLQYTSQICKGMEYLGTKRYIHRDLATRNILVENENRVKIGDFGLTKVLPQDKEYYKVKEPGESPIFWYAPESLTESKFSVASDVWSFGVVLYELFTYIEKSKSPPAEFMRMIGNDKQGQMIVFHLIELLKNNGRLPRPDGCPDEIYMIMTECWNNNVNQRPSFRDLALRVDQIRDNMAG
# Description: as §1, §2
# JAK1 protein kinase, sequence (P23458 whole entry): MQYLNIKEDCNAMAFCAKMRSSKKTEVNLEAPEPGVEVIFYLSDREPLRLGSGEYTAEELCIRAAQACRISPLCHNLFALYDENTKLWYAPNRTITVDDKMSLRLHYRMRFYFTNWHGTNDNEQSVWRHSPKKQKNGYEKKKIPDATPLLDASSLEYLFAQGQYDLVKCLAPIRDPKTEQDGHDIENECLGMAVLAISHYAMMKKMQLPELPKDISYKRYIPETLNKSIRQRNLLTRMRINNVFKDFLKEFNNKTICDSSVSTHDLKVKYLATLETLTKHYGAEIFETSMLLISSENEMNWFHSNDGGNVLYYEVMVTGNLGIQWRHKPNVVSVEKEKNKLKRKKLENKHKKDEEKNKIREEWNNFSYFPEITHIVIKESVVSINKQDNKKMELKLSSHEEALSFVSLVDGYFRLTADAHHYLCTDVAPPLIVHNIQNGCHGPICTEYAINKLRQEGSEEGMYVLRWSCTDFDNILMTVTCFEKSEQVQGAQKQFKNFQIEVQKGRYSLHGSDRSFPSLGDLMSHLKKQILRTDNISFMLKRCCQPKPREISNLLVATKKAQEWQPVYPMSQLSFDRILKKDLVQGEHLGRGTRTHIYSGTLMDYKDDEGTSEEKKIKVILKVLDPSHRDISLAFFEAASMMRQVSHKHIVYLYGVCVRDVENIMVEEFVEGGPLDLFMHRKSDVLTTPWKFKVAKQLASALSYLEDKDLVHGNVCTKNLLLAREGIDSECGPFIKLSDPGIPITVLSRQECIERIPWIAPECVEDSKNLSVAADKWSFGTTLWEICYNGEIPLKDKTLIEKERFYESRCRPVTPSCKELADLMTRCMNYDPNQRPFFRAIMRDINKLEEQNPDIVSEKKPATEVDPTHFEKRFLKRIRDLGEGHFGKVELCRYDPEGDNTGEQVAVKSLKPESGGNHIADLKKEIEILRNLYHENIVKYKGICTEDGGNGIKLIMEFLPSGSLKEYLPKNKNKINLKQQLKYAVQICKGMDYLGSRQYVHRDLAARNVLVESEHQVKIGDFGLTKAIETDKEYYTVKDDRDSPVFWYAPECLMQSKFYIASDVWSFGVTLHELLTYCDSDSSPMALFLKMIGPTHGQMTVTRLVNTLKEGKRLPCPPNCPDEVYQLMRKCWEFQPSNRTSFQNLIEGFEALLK
IC50 (JAK1 protein kinase),IC50 (JAK3),IC50 (JAK2 protein kinase),Structure (SMILES)
10 to 100 nM,10 to 100 nM,100 to 1000 nM,CN(c1ncnc2[nH]ccc12)N1CCC(C(=O)NCC(F)(F)F)CC1 [WX23]
100 to 1000 nM,100 to 1000 nM,100 to 1000 nM,CN(c1ncnc2[nH]ccc12)N1CCCC(C(N)=O)C1 (stereo not drawn) [WX11]
100 to 1000 nM,100 to 1000 nM,> 1000 nM,CN(c1ncnc2[nH]ccc12)N1CCCC(CC(=O)NCC(F)(F)F)C1 (stereo not drawn) [WX17]
< 10 nM,< 10 nM,< 10 nM,"CN(c1ncnc2[nH]ccc12)N1CCC[C@@H](C(=O)NCC(F)F)C1 (single isomer, unassigned) [WX49, (3R or 3S)-1-[methyl(7H-pyrrole[2,3-d]pyrimidine-4-)amino]-N-(2,2-difluoroethyl)piperidyl-3-formamide]"
10 to 100 nM,10 to 100 nM,100 to 1000 nM,"CCOC(=O)C1CCCN(N(C)c2ncnc3[nH]ccc23)C1 (stereo not drawn) [WX10, Ethyl 1-[methyl(7H-pyrrolo[2,3-d]pyrimidin-4-yl)amino]piperidyl-3-carboxylate]"
< 10 nM,10 to 100 nM,< 10 nM,"CN(c1ncnc2[nH]ccc12)N1CCC(C(=O)NCC(F)(F)F)C1 (single isomer, unassigned) [WX32, (R or S)-1-[methyl(7H-pyrrolo[2,3-d]pyrimidin-4-yl)amino]-N-(2,2,2-trifluoroethyl) pyrrolidyl-3-formamide]"
10 to 100 nM,10 to 100 nM,100 to 1000 nM,"CN(CC(F)(F)F)C(=O)C1CCCN(N(C)c2ncnc3[nH]ccc23)C1 (stereo not drawn) [WX02, N-methyl-1-(methyl(7H-pyrrolo[2,3-d]pyrimidin-4-yl)amino)-(2,2,2-trifluoroethyl)piperidyl-3-formamide]"
10 to 100 nM,10 to 100 nM,10 to 100 nM,"CN(c1ncnc2[nH]ccc12)N1CCCC(c2ncc(C(F)(F)F)[nH]2)C1 (stereo not drawn) [WX57, N-methyl-N-[3-[5-trifluoromethyl-1H-imidazol-2-yl]-1-piperidinyl]-7H-pyrrolo[2,3-d]pyrimidine-4-amine]"
> 1000 nM,100 to 1000 nM,> 1000 nM,"CN(c1ncnc2[nH]ccc12)N1CCCC(N2CCCC2=O)C1 (stereo not drawn) [WX29, 1-[1-[methyl(7H-pyrrolo[2,3-d]pyrimidin-4-yl)amino]-3-piperidinyl]pyrrolid-2-one]"
10 to 100 nM,100 to 1000 nM,100 to 1000 nM,"CN(c1ncnc2[nH]ccc12)N1CCCC(C(=O)Nc2cccc(C(F)(F)F)c2)C1 (stereo not drawn) [WX53, 1-[methyl(7H-pyrrolo[2,3-d]pyrimidin-4-yl)amino]-N-[3-(trifluoromethyl)phenyl]piperidyl-3-formamide]"
< 10 nM,10 to 100 nM,10 to 100 nM,"CN(c1ncnc2[nH]ccc12)N1CCC(C(=O)NCC(F)(F)F)C1 (stereo not drawn) [WX31, 1-[methyl(7H-pyrrolo[2,3-d]pyrimidin-4-yl)amino]-N-(2,2,2-trifluoroethyl)pyrrolidyl-3-formamide]"
100 to 1000 nM,100 to 1000 nM,> 1000 nM,"CN(c1ncnc2[nH]ccc12)N1CCCC(CNC(=O)CC(F)(F)F)C1 (stereo not drawn) [WX19, 3,3,3-trifluoro-N-((1-(methyl(7H-pyrrole[2,3-d]pyrimidine-4-)amino)piperidyl-3-)methyl)propionamide]"

# The remaining lines, values behind:
Structure (SMILES),IC50 (JAK1 protein kinase),IC50 (JAK3),IC50 (JAK2 protein kinase)
"N#CCNC(=O)C1CCCN(Nc2ncnc3[nH]ccc23)C1 (stereo not drawn) [WX03, N-(cyanomethyl)-1-(7H-pyrrolo[2,3-d]pyrimidin-4-yl-amino)piperidyl-3-formamide]",< 10 nM,10 to 100 nM,10 to 100 nM
"CN(c1ncnc2[nH]ccc12)N1CCCN(C(=O)CC#N)CC1 [WX34, 3-(4-(methyl(7H-pyrrolo[2,3-d]pyrimidin-4-yl)amino)-1,4-diazepan-1-yl)-3-carbonyl-propionitrile]",100 to 1000 nM,100 to 1000 nM,100 to 1000 nM
CN(c1ncnc2[nH]ccc12)N1CCCC(C(=O)NC2CC(F)(F)C2)C1 (stereo not drawn) [WX56],< 10 nM,10 to 100 nM,> 1000 nM
"CC(C)(C)OC(=O)N1CC2CN(Nc3ncnc4[nH]ccc34)CC2C1 (stereo not drawn) [WX48, 5-[[7H-pyrrole[2,3-d]pyrimidine-4-]amino]-hexahydropyrrolo[3,4-c]pyrrole-2(1H)-tert-butyl formate]",> 1000 nM,> 1000 nM,> 1000 nM
"CC1CCC2CN1N(c1ncnc3[nH]ccc13)C2=O (stereo not drawn) [WX28, 2-methyl-7-(7H-pyrrolo[2,3-d]pyrimidin-4-yl)-1,7-diazabicyclo[3.2.1]octan-6-one]",> 1000 nM,> 1000 nM,> 1000 nM
"CN(c1ncnc2[nH]ccc12)N1CCC(C(=O)NCC#N)C1 (stereo not drawn) [WX30, N-(cyanomethyl)-1-[methyl(7H-pyrrolo[2,3-d]pyrimidin-4-yl)amino]pyrrolidyl-3-formamide]",< 10 nM,10 to 100 nM,10 to 100 nM
"CC1CCC(C(=O)NCC#N)CN1N(C)c1ncnc2[nH]ccc12 (stereo not drawn) [WX26, N-(cyanomethyl)-6-methyl-1-[methyl(7H-pyrrolo[2,3-d]pyrimidin-4-yl)amino]piperidyl-3-formamide]",100 to 1000 nM,100 to 1000 nM,> 1000 nM
"CN(c1ncnc2[nH]ccc12)N1CCC[C@H](C(=O)NCC#N)C1 (single isomer, unassigned) [WX09, (S or R)—N-(cyanomethyl-1-[methyl(7H-pyrrolo[2,3-d]pyrimidin-4-yl)amino]piperidyl)-3-formamide]",100 to 1000 nM,> 1000 nM,> 1000 nM
"CN(c1ncnc2[nH]ccc12)N1CCCC(C)(C(=O)NCC#N)C1 (stereo not drawn) [WX37, N-(cyanomethyl)-3-methyl-1-[methyl(7H-pyrrolo[2,3-d]pyrimidie-yl)amino]piperidyl-3-formamide]",> 1000 nM,> 1000 nM,> 1000 nM
"CN(c1ncnc2[nH]ccc12)N1CCC(C(=O)NCC#N)CC1 [WX20, N-(cyanomethyl)-1-(methyl(7H-pyrrolo[2,3-d]pyrimidin-4-yl)amino)piperidyl-4-formamide]",10 to 100 nM,10 to 100 nM,100 to 1000 nM
CN(c1ncnc2[nH]ccc12)N1CCCC(C(=O)N2CC(O)C2)C1 (stereo not drawn) [WX54],100 to 1000 nM,100 to 1000 nM,100 to 1000 nM
